The nature of data set [1]: Selectivity index, ratio of IC50 for cytotoxicity against human HK-2 cells to MIC for antibacterial activity against Escherichia coli ATCC BAA-2523. It is filed as toxicity, cell-based.
For data set [2], the system named is Pseudomonas aeruginosa. Description: Antibacterial activity against carbapenem resistant Pseudomonas aeruginosa clinical isolate 17-1 assessed as inhibition of bacterial growth incubated for 18 to 24 hrs by broth microdilution method. It is filed as functional. The note with it: time 18-24 hrs.
Data set [3] relates to Klebsiella pneumoniae. Description: Antibacterial activity against carbapenem resistant Klebsiella pneumoniae clinical isolate 19-17 assessed as inhibition of bacterial growth incubated for 18 to 24 hrs by broth microdilution method. It is filed as functional. The following applies: time 18-24 hrs.
The subject of data set [4] is Pseudomonas aeruginosa. Nature of the data set: Antibacterial activity against Pseudomonas aeruginosa ATCC 27853 assessed as inhibition of bacterial growth incubated for 18 to 24 hrs by broth microdilution method. It is filed as functional. The following applies: time 18-24 hrs.
Data set [5] deals with Escherichia coli. Nature of the data set: Antibacterial activity against Escherichia coli NCTC 13353 assessed as inhibition of bacterial growth incubated for 18 to 24 hrs by broth microdilution method. It is filed as functional. The following applies: time 18-24 hrs.
Data set [6] concerns Staphylococcus aureus. Description: Antibacterial activity against Staphylococcus aureus ATCC 29213 assessed as inhibition of bacterial growth incubated for 18 to 24 hrs by broth microdilution method. It is filed as functional. The following applies: time 18-24 hrs.
A short description of data set [7]: Cytotoxicity against human HK-2 cells assessed as inhibition of cell growth incubated for 72 hrs by CCK-8 assay. It is filed as toxicity, cell-based.
The test system of data set [8] is Pseudomonas aeruginosa. Nature of the data set: Antibacterial activity against Pseudomonas aeruginosa clinical isolate 19-1 assessed as inhibition of bacterial growth incubated for 18 to 24 hrs by broth microdilution method. It is filed as functional. The following applies: time 18-24 hrs.
For data set [9], the system named is Klebsiella pneumoniae. Description: Antibacterial activity against carbapenem resistant Klebsiella pneumoniae clinical isolate 19-15 assessed as inhibition of bacterial growth incubated for 18 to 24 hrs by broth microdilution method. The note with it: time 18-24 hrs. It is filed as functional.
The subject of data set [10] is Staphylococcus aureus. Nature of the data set: Antibacterial activity against methicillin resistant Staphylococcus aureus ATCC 33591 assessed as inhibition of bacterial growth incubated for 18 to 24 hrs by broth microdilution method. It is filed as functional. The note with it: time 18-24 hrs.
The test system of data set [11] is Klebsiella pneumoniae. Nature of the data set: Antibacterial activity against KPC producing Klebsiella pneumoniae ATCC BAA-1705 assessed as inhibition of bacterial growth incubated for 18 to 24 hrs by broth microdilution method. It is filed as functional. The note with it: time 18-24 hrs.
The subject of data set [12] is Escherichia coli. Nature of the data set: Antibacterial activity against Escherichia coli ATCC BAA-2523 assessed as inhibition of bacterial growth incubated for 18 to 24 hrs by broth microdilution method. The note with it: time 18-24 hrs. It is filed as functional.
The subject of data set [13] is Escherichia coli. Nature of the data set: Antibacterial activity against Escherichia coli clinical isolate 19-2 assessed as inhibition of bacterial growth incubated for 18 to 24 hrs by broth microdilution method. It is filed as functional. The note with it: time 18-24 hrs.
The test system of data set [14] is Acinetobacter baumannii. Nature of the data set: Antibacterial activity against carbapenem resistant Acinetobacter baumannii clinical isolate 19-8 assessed as inhibition of bacterial growth incubated for 18 to 24 hrs by broth microdilution method. It is filed as functional. The note with it: time 18-24 hrs.
Data set [15] has as its system Acinetobacter baumannii. Description: Antibacterial activity against oxacillinase-27 producing Acinetobacter baumannii NCTC 13304 assessed as inhibition of bacterial growth incubated for 18 to 24 hrs by broth microdilution method. It is filed as functional. The note with it: time 18-24 hrs.
Data set [16] has as its system Pseudomonas aeruginosa. Nature of the data set: Antibacterial activity against carbapenem resistant Pseudomonas aeruginosa clinical isolate 19-3 assessed as inhibition of bacterial growth incubated for 18 to 24 hrs by broth microdilution method. It is filed as functional. The note with it: time 18-24 hrs.
Data set [17] has as its system Staphylococcus epidermidis. Nature of the data set: Antibacterial activity against methicillin resistant Staphylococcus epidermidis clinical isolate 19-6 assessed as inhibition of bacterial growth incubated for 18 to 24 hrs by broth microdilution method. The note with it: time 18-24 hrs. It is filed as functional.
Data set [18] concerns Staphylococcus epidermidis. Description: Antibacterial activity against methicillin resistant Staphylococcus epidermidis clinical isolate 19-5 assessed as inhibition of bacterial growth incubated for 18 to 24 hrs by broth microdilution method. It is filed as functional. The note with it: time 18-24 hrs.
For data set [19], the system named is Escherichia coli. Description: Antibacterial activity against KPC producing Escherichia coli ATCC BAA-2340 assessed as inhibition of bacterial growth incubated for 18 to 24 hrs by broth microdilution method. It is filed as functional. The following applies: time 18-24 hrs.

In brackets after ≈: the same amount, converted by molar mass. A value given as a limit tells only on which side of the number the result lay.

For the compound `CCCCCCCCCC(=O)N[C@H](CCN)C(=O)N[C@H]1CCNC(=O)[C@H]([C@@H](C)O)NC(=O)[C@H](CCN)NC(=O)[C@H](CCN)NC(=O)[C@H](CC(C)C)NC(=O)[C@@H](Cc2cccc(Cl)c2)NC(=O)[C@H](CCN)NC1=O`, in data set [1], the selectivity ratio was determined as 21.3. Moreover, the MIC in the data set with Pseudomonas aeruginosa [2] was found to be 32 µg/mL (≈ 30.5 µM); in the data set with Klebsiella pneumoniae [3] it was 4 µg/mL (≈ 3.81 µM); in the data set with Pseudomonas aeruginosa [4], 32 µg/mL (≈ 30.5 µM); in the data set with Escherichia coli [5] it was 4 µg/mL (≈ 3.81 µM); in the data set on Staphylococcus aureus [6] it was 32 µg/mL (≈ 30.5 µM); in the data set on Pseudomonas aeruginosa [8] it was 2 µg/mL (≈ 1.9 µM). Besides, the MIC stood at 4 µg/mL (≈ 3.81 µM) with Klebsiella pneumoniae [9]; 64 µg/mL (≈ 60.9 µM) in the data set on Staphylococcus aureus [10]; 2 µg/mL (≈ 1.9 µM) with Klebsiella pneumoniae [11]; 2 µg/mL (≈ 1.9 µM) in the data set on Escherichia coli [12]; 2 µg/mL (≈ 1.9 µM) in the data set on Escherichia coli [13]; 16 µg/mL (≈ 15.2 µM) in the data set with Acinetobacter baumannii [14]. For the same compound, the minimal inhibitory concentration (MIC) worked out at 16 µg/mL (≈ 15.2 µM) in the data set on Acinetobacter baumannii [15]; 2 µg/mL (≈ 1.9 µM) with Pseudomonas aeruginosa [16]; 2 µg/mL (≈ 1.9 µM) in data set [17]; 2 µg/mL (≈ 1.9 µM) in data set [18]; 1 µg/mL (≈ 0.952 µM) in the data set with Escherichia coli [19]. In addition, in data set [7], the half-maximal inhibitory concentration (IC50) at 72 h was determined as 42.5 µg/mL (≈ 40.4 µM).

Turning to `CCCCCCCCCC(=O)N[C@H](CCN)C(=O)N[C@H]1CCNC(=O)[C@H]([C@@H](C)O)NC(=O)[C@H](CCN)NC(=O)[C@H](CCN)NC(=O)[C@H](CC(C)C)NC(=O)[C@@H](Cc2ccc(C)cc2)NC(=O)[C@H](CCN)NC1=O`, the selectivity ratio in data set [1] turned out to be 71.6. Moreover, the minimal inhibitory concentration (MIC) with Pseudomonas aeruginosa [2] worked out at 32 µg/mL (≈ 31.1 µM); in the data set on Klebsiella pneumoniae [3] it was 4 µg/mL (≈ 3.88 µM); with Pseudomonas aeruginosa [4], 32 µg/mL (≈ 31.1 µM); in the data set on Escherichia coli [5], 8 µg/mL (≈ 7.76 µM); in the data set with Staphylococcus aureus [6], 32 µg/mL (≈ 31.1 µM); with Pseudomonas aeruginosa [8] it was 1 µg/mL (≈ 0.971 µM). The MIC was 4 µg/mL (≈ 3.88 µM) in the data set with Klebsiella pneumoniae [9]; above 64 µg/mL in the data set on Staphylococcus aureus [10]; 2 µg/mL (≈ 1.94 µM) with Klebsiella pneumoniae [11]; 1 µg/mL (≈ 0.971 µM) with Escherichia coli [12]; 2 µg/mL (≈ 1.94 µM) in the data set with Escherichia coli [13]; 32 µg/mL (≈ 31.1 µM) in the data set with Acinetobacter baumannii [14]. Further, the MIC with Acinetobacter baumannii [15] was 16 µg/mL (≈ 15.5 µM); in the data set on Pseudomonas aeruginosa [16], 1 µg/mL (≈ 0.971 µM); in [17] it was 2 µg/mL (≈ 1.94 µM); in [18], 2 µg/mL (≈ 1.94 µM); in the data set with Escherichia coli [19] it was 1 µg/mL (≈ 0.971 µM). In data set [7], the IC50 at 72 h turned out to be 71.6 µg/mL (≈ 69.5 µM).

As to `CCCCCCCCCC(=O)N[C@H](CCN)C(=O)N[C@H]1CCNC(=O)[C@H](CC(C)C)NC(=O)[C@H](CCN)NC(=O)[C@H](CCN)NC(=O)[C@H](Cc2ccccc2)NC(=O)[C@@H](Cc2ccccc2)NC(=O)[C@H](CCN)NC1=O`, in data set [1], the selectivity ratio was found to be 4. For the same compound, the MIC in the data set with Pseudomonas aeruginosa [2] was determined as 8 µg/mL (≈ 7.53 µM); with Klebsiella pneumoniae [3], 16 µg/mL (≈ 15.1 µM); in the data set on Pseudomonas aeruginosa [4] it was 8 µg/mL (≈ 7.53 µM); in the data set on Escherichia coli [5], 8 µg/mL (≈ 7.53 µM); in the data set on Staphylococcus aureus [6], 8 µg/mL (≈ 7.53 µM); in the data set on Pseudomonas aeruginosa [8], 4 µg/mL (≈ 3.77 µM). Also, the MIC came out at 8 µg/mL (≈ 7.53 µM) in the data set on Klebsiella pneumoniae [9]; 32 µg/mL (≈ 30.1 µM) in the data set on Staphylococcus aureus [10]; 16 µg/mL (≈ 15.1 µM) with Klebsiella pneumoniae [11]; 8 µg/mL (≈ 7.53 µM) with Escherichia coli [12]; 8 µg/mL (≈ 7.53 µM) in the data set with Escherichia coli [13]; 16 µg/mL (≈ 15.1 µM) in the data set with Acinetobacter baumannii [14]. Further, the MIC was found to be 16 µg/mL (≈ 15.1 µM) in the data set on Acinetobacter baumannii [15]; 4 µg/mL (≈ 3.77 µM) in the data set on Pseudomonas aeruginosa [16]; 1 µg/mL (≈ 0.941 µM) in data set [17]; 1 µg/mL (≈ 0.941 µM) in [18]; 2 µg/mL (≈ 1.88 µM) in the data set on Escherichia coli [19]. The concentration for half-maximal inhibition (IC50) at 72 h in data set [7] was determined as 32.2 µg/mL (≈ 30.3 µM).

Regarding `CCCCCCCCCC(=O)N[C@H](CCN)C(=O)N[C@H]1CCNC(=O)[C@H]([C@@H](C)O)NC(=O)[C@H](CCN)NC(=O)[C@H](CCN)NC(=O)[C@H](CC(C)C)NC(=O)[C@@H](Cc2ccc(C(C)(C)C)cc2)NC(=O)[C@H](CCN)NC1=O`, in data set [1], the selectivity ratio is 15.9. In addition, the MIC amounted to 4 µg/mL (≈ 3.73 µM) in the data set on Pseudomonas aeruginosa [2]; 2 µg/mL (≈ 1.86 µM) with Klebsiella pneumoniae [3]; 2 µg/mL (≈ 1.86 µM) with Pseudomonas aeruginosa [4]; 4 µg/mL (≈ 3.73 µM) with Escherichia coli [5]; 4 µg/mL (≈ 3.73 µM) in the data set with Staphylococcus aureus [6]; 4 µg/mL (≈ 3.73 µM) with Pseudomonas aeruginosa [8]. Besides, the MIC in the data set with Klebsiella pneumoniae [9] was found to be 4 µg/mL (≈ 3.73 µM); in the data set with Staphylococcus aureus [10] it was 4 µg/mL (≈ 3.73 µM); in the data set on Klebsiella pneumoniae [11] it was 2 µg/mL (≈ 1.86 µM); in the data set with Escherichia coli [12], 1 µg/mL (≈ 0.932 µM); in the data set on Escherichia coli [13] it was 2 µg/mL (≈ 1.86 µM); in the data set on Acinetobacter baumannii [14] it was 16 µg/mL (≈ 14.9 µM). Moreover, the MIC in the data set with Acinetobacter baumannii [15] stood at 16 µg/mL (≈ 14.9 µM); in the data set on Pseudomonas aeruginosa [16], 2 µg/mL (≈ 1.86 µM); in [17], 2 µg/mL (≈ 1.86 µM); in data set [18], 0.5 µg/mL (≈ 0.466 µM); in the data set with Escherichia coli [19] it was 2 µg/mL (≈ 1.86 µM). Moreover, in data set [7], the IC50 at 72 h was 15.9 µg/mL (≈ 14.8 µM).

For the origin of these results see ChEMBL document CHEMBL5380795, “Design, Synthesis, and Bioactivity Investigation of Cyclic Lipopeptide Antibiotics Containing Eight to Nine Amino Acids” (J Med Chem, 2023).
